# Assay results as given in patent publication US20240327382A1 (ALMAC DISCOVERY LIMITED, priority 2021, published 2024).
# Target: T1, Full-length USP19 (Homo sapiens, UniProt O94966)
# T1 construct: Full-length USP19 was purchased from Boston Biochem (E-576); purchased Boston Biochem E-576
# T1 sequence (O94966 1-1318): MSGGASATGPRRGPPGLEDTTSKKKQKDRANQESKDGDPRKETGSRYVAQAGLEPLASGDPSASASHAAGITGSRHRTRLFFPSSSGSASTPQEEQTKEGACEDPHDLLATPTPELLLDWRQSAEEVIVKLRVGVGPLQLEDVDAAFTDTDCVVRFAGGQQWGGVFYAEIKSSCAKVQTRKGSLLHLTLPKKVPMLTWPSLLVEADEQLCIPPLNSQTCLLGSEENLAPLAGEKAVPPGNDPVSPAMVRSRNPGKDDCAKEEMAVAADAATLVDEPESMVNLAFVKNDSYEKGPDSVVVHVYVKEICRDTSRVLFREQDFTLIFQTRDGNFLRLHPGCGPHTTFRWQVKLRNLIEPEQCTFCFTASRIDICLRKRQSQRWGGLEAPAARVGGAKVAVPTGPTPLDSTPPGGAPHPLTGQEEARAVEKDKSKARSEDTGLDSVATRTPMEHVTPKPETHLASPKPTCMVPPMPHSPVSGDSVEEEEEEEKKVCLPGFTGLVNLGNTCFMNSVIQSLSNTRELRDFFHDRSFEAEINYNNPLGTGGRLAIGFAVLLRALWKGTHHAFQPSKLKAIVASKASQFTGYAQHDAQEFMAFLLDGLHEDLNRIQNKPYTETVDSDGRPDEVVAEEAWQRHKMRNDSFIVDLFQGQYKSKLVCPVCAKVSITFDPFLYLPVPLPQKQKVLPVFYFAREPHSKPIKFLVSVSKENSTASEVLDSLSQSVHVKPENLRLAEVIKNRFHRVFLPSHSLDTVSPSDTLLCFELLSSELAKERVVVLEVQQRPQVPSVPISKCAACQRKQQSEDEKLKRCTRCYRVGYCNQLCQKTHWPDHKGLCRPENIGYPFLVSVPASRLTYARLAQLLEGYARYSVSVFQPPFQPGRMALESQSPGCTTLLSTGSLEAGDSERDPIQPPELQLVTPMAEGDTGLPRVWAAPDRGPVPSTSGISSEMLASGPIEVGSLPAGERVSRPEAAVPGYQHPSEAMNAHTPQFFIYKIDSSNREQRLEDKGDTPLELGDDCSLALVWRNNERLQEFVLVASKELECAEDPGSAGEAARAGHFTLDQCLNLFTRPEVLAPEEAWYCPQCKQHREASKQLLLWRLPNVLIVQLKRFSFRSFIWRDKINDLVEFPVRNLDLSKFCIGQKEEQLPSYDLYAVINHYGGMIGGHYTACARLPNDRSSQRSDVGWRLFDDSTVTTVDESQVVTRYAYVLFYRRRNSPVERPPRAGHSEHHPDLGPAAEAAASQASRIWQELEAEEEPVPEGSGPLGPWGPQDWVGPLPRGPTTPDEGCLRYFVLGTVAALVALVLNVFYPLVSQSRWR
# Assay: USP19 fluorescence polarisation (FP) assay, Ubiquitin-Lys-TAMRA substrate
# Assay type: biochemical
# Conditions: average of at least two duplicate experiments
# How it was run: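 Fluorescence polarisation (excitation 530 nm, parallel and perpendicular emission at 575 nm) was recorded every 15 min for 90 min after adding the ubiquitin-Lys-TAMRA isopeptide (500 nM as dispensed). Beforehand, the full-length enzyme (2.5 nM as dispensed) sat 30 min at RT with compound diluted from 200 μM to 2 μM in HEPES pH 7.4 buffer with 150 mM NaCl, 5 mM DTT, 0.05% BSA and 0.05% CHAPS. Values normalised to uninhibited wells gave IC50s by non-linear fitting, each the mean of two or more duplicate runs.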
row,SMILES,IC50
1,"CN[C@@H]1CCN(C(=O)N2CC[C@@H](Cn3cnc(-c4ccccc4F)cc3=O)C3(CCCC3)C2)[C@H](c2ccccc2)C1 [Example 109, 6-(2-Fluorophenyl)-3-(((R)-7-((2S,4R)-4-(methylamino)-2-phenylpiperidine-1-carbonyl)-7-azaspiro[4.5]decan-10-yl)methyl)pyrimidin-4(3H)-one]",< 10 nM
2,"COc1ccccc1-c1cc(=O)n(C[C@@H]2CCN(C(=O)N3CC[C@@H](N4CCOCC4)C[C@H]3c3ccccc3)CC23CCCC3)cn1 [Example 110, 6-(2-Methoxyphenyl)-3-(((R)-7-((2S,4R)-4-morpholino-2-phenylpiperidine-1-carbonyl)-7-azaspiro[4.5]decan-10-yl)methyl)pyrimidin-4(3H)-one]",10 to 100 nM
3,"CC1(N[C@@H]2CCN(C(=O)N3CC[C@@H](Cn4ccc(-c5ccccc5)cc4=O)C4(CCCC4)C3)[C@H](c3ccccc3)C2)COC1 [Example 111, 1-(((R)-7-((2S,4R)-4-((3-Methyloxetan-3-yl)amino)-2-phenylpiperidine-1-carbonyl)-7-azaspiro[4.5]decan-10-yl)methyl)-4-phenylpyridin-2(1H)-one]",< 10 nM
4,"O=C(N1CC[C@@H](Cn2ccc(-c3ccccc3)cc2=O)C2(CCCC2)C1)N1CC[C@@H](NC2(CF)COC2)C[C@H]1c1ccccc1 [Example 112, 1-(((R)-7-((2S,4R)-4-((3-(Fluoromethyl)oxetan-3-yl)amino)-2-phenylpiperidine-1-carbonyl)-7-azaspiro[4.5]decan-10-yl)methyl)-4-phenylpyridin-2(1H)-one]",10 to 100 nM
5,"CN[C@@H]1CCN(C(=O)N2CC[C@@H](Cn3ccc(-c4ccccc4OC)cc3=O)C3(CCCC3)C2)[C@H](c2cc(F)ccc2F)C1 [Example 113, 1-(((R)-7-((2S,4R)-2-(2,5-Difluorophenyl)-4-(methylamino)piperidine-1-carbonyl)-7-azaspiro[4.5]decan-10-yl)methyl)-4-(2-methoxyphenyl)pyridin-2(1H)-one]",< 10 nM
6,"CN[C@@H]1CCN(C(=O)N2CC[C@@H](Cn3cnc(-c4ccccc4C)cc3=O)C3(CCCC3)C2)[C@H](c2cc(F)ccc2F)C1 [Example 114, 3-(((R)-7-((2S,4R)-2-(2,5-Difluorophenyl)-4-(methylamino)piperidine-1-carbonyl)-7-azaspiro[4.5]decan-10-yl)methyl)-6-(o-tolyl)pyrimidin-4(3H)-one]",< 10 nM
7,"COc1ccccc1-c1cc(=O)n(C[C@@H]2CCN(C(=O)N3CCNC[C@H]3c3cccc(F)c3)CC23CCCC3)cn1 [Example 115, 3-(((R)-7-((R)-2-(3-Fluorophenyl)piperazine-1-carbonyl)-7-azaspiro[4.5]decan-10-yl)methyl)-6-(2-methoxyphenyl)pyrimidin-4(3H)-one]",< 10 nM
8,"COc1ccccc1-c1cc(=O)n(C[C@@H]2CCN(C(=O)N3CCNC[C@H]3c3cc(F)ccc3F)CC23CCCC3)cn1 [Example 116, 3-(((R)-7-((R)-2-(2,5-Difluorophenyl)piperazine-1-carbonyl)-7-azaspiro[4.5]decan-10-yl)methyl)-6-(2-methoxyphenyl)pyrimidin-4(3H)-one]",< 10 nM
9,"CN[C@@H]1CCN(C(=O)N2CC[C@@H](Cn3cnc(-c4ccccc4OC)cc3=O)C3(CCCC3)C2)[C@H](c2ccc(F)cc2F)C1 [Example 117, 3-(((R)-7-((2S,4R)-2-(2,4-Difluorophenyl)-4-(methylamino)piperidine-1-carbonyl)-7-azaspiro[4.5]decan-10-yl)methyl)-6-(2-methoxyphenyl)pyrimidin-4(3H)-one]",< 10 nM
10,"CN[C@@H]1CCN(C(=O)N2CC[C@@H](Cn3ccc(-c4ccccc4OC)cc3=O)C3(CCCC3)C2)[C@H](c2ccccc2F)C1 [Example 118, 1-(((R)-7-((2S,4R)-2-(2-Fluorophenyl)-4-(methylamino)piperidine-1-carbonyl)-7-azaspiro[4.5]decan-10-yl)methyl)-4-(2-methoxyphenyl)pyridin-2(1H)-one]",< 10 nM
11,"CN[C@@H]1CCN(C(=O)N2CC[C@@H](Cn3cnc(-c4ccccc4C)cc3=O)C3(CCCC3)C2)[C@H](c2cccc(F)c2)C1 [Example 119, 3-(((R)-7-((2S,4R)-2-(3-Fluorophenyl)-4-(methylamino)piperidine-1-carbonyl)-7-azaspiro[4.5]decan-10-yl)methyl)-6-(0-tolyl)pyrimidin-4(3H)-one]",< 10 nM
12,"CN[C@@H]1CCN(C(=O)N2CC[C@@H](Cn3ccc(-c4ccccc4OC)cc3=O)C3(CCCC3)C2)[C@H](c2ccc(F)cc2)C1 [Example 120, 1-(((R)-7-((2S,4R)-2-(4-Fluorophenyl)-4-(methylamino)piperidine-1-carbonyl)-7-azaspiro[4.5]decan-10-yl)methyl)-4-(2-methoxyphenyl)pyridin-2(1H)-one]",< 10 nM
13,"CN[C@@H]1CCN(C(=O)N2CC[C@@H](Cn3ccc(-c4ccccc4)cc3=O)C3(CCCC3)C2)[C@H](c2cc(F)cc(F)c2)C1 [Example 121, 1-(((R)-7-((2S,4R)-2-(3,5-Difluorophenyl)-4-(methylamino)piperidine-1-carbonyl)-7-azaspiro[4.5]decan-10-yl)methyl)-4-phenylpyridin-2(1H)-one]",< 10 nM
14,"CN[C@@H]1CCN(C(=O)N2CC[C@@H](Cn3cnc(-c4ccccc4)cc3=O)C3(CCCC3)C2)[C@H](c2cc(F)cc(F)c2)C1 [Example 122, 3-(((R)-7-((2S,4R)-2-(3,5-Difluorophenyl)-4-(methylamino)piperidine-1-carbonyl)-7-azaspiro[4.5]decan-10-yl)methyl)-6-phenylpyrimidin-4(3H)-one]",< 10 nM
15,"CN[C@@H]1CCN(C(=O)N2CC[C@@H](Cn3ccc(Cl)cc3=O)C3(CCCC3)C2)[C@H](c2cc(F)ccc2F)C1 [Example 123, 4-Chloro-1-(((R)-7-((2S,4R)-2-(2,5-difluorophenyl)-4-(methylamino)piperidine-1-carbonyl)-7-azaspiro[4.5]decan-10-yl)methyl)pyridin-2(1H)-one]",< 10 nM
16,"CN[C@@H]1CCN(C(=O)N2CC[C@@H](Cn3cnc(-c4ccccc4OC)cc3=O)C3(CCCC3)C2)[C@H](c2cc(F)cc(F)c2)C1 [Example 124, 3-(((R)-7-((2S,4R)-2-(3,5-Difluorophenyl)-4-(methylamino)piperidine-1-carbonyl)-7-azaspiro[4.5]decan-10-yl)methyl)-6-(2-methoxyphenyl)pyrimidin-4(3H)-one]",< 10 nM
17,"CN[C@@H]1CCN(C(=O)N2CC[C@@H](Cn3cnc4ccc(F)cc4c3=O)C3(CCCC3)C2)[C@H](c2cc(F)ccc2F)C1 [Example 125, 3-(((R)-7-((2S,4R)-2-(2,5-Difluorophenyl)-4-(methylamino)piperidine-1-carbonyl)-7-azaspiro[4.5]decan-10-yl)methyl)-6-fluoroquinazolin-4(3H)-one]",< 10 nM
18,"CN[C@@H]1CCN(C(=O)N2CC[C@@H](Cn3ccc(-c4ccccc4OC)cc3=O)C3(CCCC3)C2)[C@H](c2cc(F)cc(F)c2)C1 [Example 126, 1-(((R)-7-((2S,4R)-2-(3,5-Difluorophenyl)-4-(methylamino)piperidine-1-carbonyl)-7-azaspiro[4.5]decan-10-yl)methyl)-4-(2-methoxyphenyl)pyridin-2(1H)-one]",< 10 nM
19,"CN[C@@H]1CCN(C(=O)N2CC[C@@H](Cn3cccnc3=O)C3(CCCC3)C2)[C@H](c2ccc(F)cc2F)C1 [Example 128, 1-(((R)-7-((2S,4R)-2-(2,4-Difluorophenyl)-4-(methylamino)piperidine-1-carbonyl)-7-azaspiro[4.5]decan-10-yl)methyl)pyrimidin-2(1H)-one]",100 to 1000 nM
20,"CN[C@@H]1CCN(C(=O)N2CC[C@@H](Cn3ncccc3=O)C3(CCCC3)C2)[C@H](c2ccc(F)cc2F)C1 [Example 129, 2-(((R)-7-((2S,4R)-2-(2,4-Difluorophenyl)-4-(methylamino)piperidine-1-carbonyl)-7-azaspiro[4.5]decan-10-yl)methyl)pyridazin-3(2H)-one]",10 to 100 nM
